Test results taken from the NIST ThermoML archive (doi:10.1016/j.fluid.2016.08.035).
± gives the expanded uncertainty stated by the source.

What was measured:
[1] = xn = mol fraction of the nth substance listed; details: 101 kPa, Liquid, x2 = 0; for viscosity: Falling or rolling sphere viscometry; for speed of sound: Sing-around technique in a fixed-path interferometer; for mass density: Vibrating tube method
[2] = molar heat capacity at constant pressure; xn = mol fraction of the nth substance listed; details: 101 kPa, Liquid, DSC, x2 = 0

Compound | viscosity ([1]; 278.15 K) [mPa·s] | speed of sound ([1]; 278.15 K) [m/s] | mass density ([1]; 278.15 K) [kg/m3] | viscosity ([1]; 298.15 K) [mPa·s] | speed of sound ([1]; 298.15 K) [m/s] | mass density ([1]; 298.15 K) [kg/m3] | viscosity ([1]; 318.15 K) [mPa·s] | speed of sound ([1]; 318.15 K) [m/s] | mass density ([1]; 318.15 K) [kg/m3] | viscosity ([1]; 338.15 K) [mPa·s] | speed of sound ([1]; 338.15 K) [m/s] | mass density ([1]; 338.15 K) [kg/m3] | molar heat capacity at constant pressure ([2]; 278.15 K) [J/K/mol] | molar heat capacity at constant pressure ([2]; 298.15 K) [J/K/mol] | molar heat capacity at constant pressure ([2]; 318.15 K) [J/K/mol] | molar heat capacity at constant pressure ([2]; 338.15 K) [J/K/mol]
CCCCCCCCCC [decane] + CC12CCC(CC1)C(C)(C)O2 | 1.19 ± 0.04 | 1315 ± 1.5 | 741.18 ± 0.24 | 0.86 ± 0.04 | 1234.7 ± 1.5 | 726.11 ± 0.24 | 0.66 ± 0.04 | 1156.6 ± 1.5 | 710.89 ± 0.24 | 0.54 ± 0.04 | 1080.5 ± 1.5 | 695.42 ± 0.25 | 305.94 ± 12 | 314.4 ± 12 | 323.94 ± 13 | 334.32 ± 13
CCCCCC [hexane] + CC12CCC(CC1)C(C)(C)O2 | 0.39 ± 0.04 | 1169 ± 1.5 | 673.1 ± 0.25 | 0.34 ± 0.04 | 1078.2 ± 1.5 | 655.3 ± 0.25 | 0.3 ± 0.04 | 988.59 ± 1.5 | 636.71 ± 0.25 | 0.26 ± 0.04 | 901.09 ± 1.5 | 617.44 ± 0.26 | 188.32 ± 7.3 | 194.96 ± 7.5 | 201.96 ± 7.8 | 208.99 ± 8.1
CCCCCCCC [octane] + CC12CCC(CC1)C(C)(C)O2 | 0.68 ± 0.04 | 1256.7 ± 1.3 | 714.55 ± 0.17 | 0.53 ± 0.04 | 1172.7 ± 1.2 | 698.51 ± 0.17 | 0.43 ± 0.04 | 1090.7 ± 1.2 | 682.19 ± 0.18 | 0.37 ± 0.04 | 1010.7 ± 1.2 | 665.43 ± 0.18 | 246.17 ± 9.5 | 253.89 ± 9.8 | 262.16 ± 10 | 270.96 ± 10
